From patent publication US8129397B2, “Substituted thieno[2,3-d]pyrimidines as AMPA modulators” (MSD Oss B.V., priority 2007, dated 2012) come the findings set out here.

Assay [1] relates to postnatal rat cortical neurones. In words: Whole cell patch clamp recording of glutamate-evoked currents. It counts as cell-based. The conditions noted are these: at 10 μM compound, glutamate 0.5 mM, holding potential −60 mV. Here is the method: B: Patch Clamp Recording.
The whole cell configuration of the patch clamp technique (Hamill et al., Pflugers Arch. 1981, […], 85-100) was used to measure glutamate-evoked currents from postnatal rat cortical neurones. A glass coverslip containing the culture was transferred to the recording chamber (Warner Instrument Corp., Hamden, Conn.) mounted on the stage of an inverted microscope (Nikon, Kingston, UK). The recording chamber contained 1-2 ml extracellular solution (145 mM NaCl, 5.4 mM KCl, 10 mM HEPES, 0.8 mM MgCl2, 1.8 CaCl2, 10 mM glucose and 30 mM sucrose, adjusted to pH 7.4 with 1M NaOH) and was constantly perused at a rate of 1 ml/min. Recordings were performed at room temperature (20-22° C.) using an Axopatch 200B amplifier (Axon Instruments Ltd., Foster City, Calif.). Data acquisition and analysis was performed using Signal software (Cambridge Electronic Design Ltd., Cambridge, UK). Pipettes were manufactured from GC120F-10 glass (Harvard Apparatus, Edenbridge UK) using a model P-87 electrode puller (Sutter Instruments Co., Novarto, Calif.). The patch electrodes had typical resistances of between 3-5 MQ when filled with intracellular solution (140 mM potassium gluconate, 20 mM HEPES, 1.1 mM EGTA, 5 mM phosphocreatine, 3 mM ATP, 0.3 mM GTP, 0.1 mM Caca2, 5 mM MgCl2, adjusted to pH 7.4 with 1M KOH). […]
For orientation: The patch-clamp technique gives a direct electrical read-out from membranes.

For a further assay, the target named is T1, AMPA (GluR1) receptor (Homo sapiens, UniProt P42261).
T1 construct: expressed in transfected cells; host or cells: HEK cells (HEK.GluR1(i)), kept under hygromycin selection
In words: Ca2+ influx fluorescence assay (FLEXstation, HEK.GluR1(i) cells). It counts as cell-based. The conditions noted are these: Ca2+ influx in the presence of glutamate, Fluo-3, read-out: EC50, positive modulation of the AMPA receptor. The text has this: A: Ca^2+ Influx Fluorescence Assays
The compounds in this invention may be tested using a biological assay which measures Ca^2+ influx mediated through positive modulation of the AMPA (GluR1) receptor using standard techniques in the art such as, but not limited to, a FLEXstation (manufactured by Molecular Devices, Sunnyvale, Calif.). An optical readout using fluorescent probes is employed to measure ion channel dependent changes in intracellular ion concentration or membrane potential. The assay utilises the Ca^2+ conductance of functional homomeric GluR1(i) AMPA receptors to generate glutamate-dependent Ca^2+ responses. Influx of Ca^2+ through the ion channel is measured indirectly through an increase in intracellular Ca^2+ levels using the calcium sensitive dye such as, but not limited to, Fluo-3 (Molecular Devices, Sunnyvale, Calif.) in FLEXstation. A positive AMPA receptor modulator, in the presence of glutamate, will result in an influx of Ca^2+ through the ion channel which can be measured indirectly through an increase in intracellular Ca^2+ levels using the calcium sensitive dye Fluo-3 in FLEXstation.
HEK.GluR1(i) cells were maintained in DMEM supplemented with 10% fetaclone II, 1% non-essential amino acids and 150 μg/mL hygromycin, at 37° C./5% CO2. […]

T1 sequence (P42261 19-906 isoform P42261-2 limits assumed, species assumed): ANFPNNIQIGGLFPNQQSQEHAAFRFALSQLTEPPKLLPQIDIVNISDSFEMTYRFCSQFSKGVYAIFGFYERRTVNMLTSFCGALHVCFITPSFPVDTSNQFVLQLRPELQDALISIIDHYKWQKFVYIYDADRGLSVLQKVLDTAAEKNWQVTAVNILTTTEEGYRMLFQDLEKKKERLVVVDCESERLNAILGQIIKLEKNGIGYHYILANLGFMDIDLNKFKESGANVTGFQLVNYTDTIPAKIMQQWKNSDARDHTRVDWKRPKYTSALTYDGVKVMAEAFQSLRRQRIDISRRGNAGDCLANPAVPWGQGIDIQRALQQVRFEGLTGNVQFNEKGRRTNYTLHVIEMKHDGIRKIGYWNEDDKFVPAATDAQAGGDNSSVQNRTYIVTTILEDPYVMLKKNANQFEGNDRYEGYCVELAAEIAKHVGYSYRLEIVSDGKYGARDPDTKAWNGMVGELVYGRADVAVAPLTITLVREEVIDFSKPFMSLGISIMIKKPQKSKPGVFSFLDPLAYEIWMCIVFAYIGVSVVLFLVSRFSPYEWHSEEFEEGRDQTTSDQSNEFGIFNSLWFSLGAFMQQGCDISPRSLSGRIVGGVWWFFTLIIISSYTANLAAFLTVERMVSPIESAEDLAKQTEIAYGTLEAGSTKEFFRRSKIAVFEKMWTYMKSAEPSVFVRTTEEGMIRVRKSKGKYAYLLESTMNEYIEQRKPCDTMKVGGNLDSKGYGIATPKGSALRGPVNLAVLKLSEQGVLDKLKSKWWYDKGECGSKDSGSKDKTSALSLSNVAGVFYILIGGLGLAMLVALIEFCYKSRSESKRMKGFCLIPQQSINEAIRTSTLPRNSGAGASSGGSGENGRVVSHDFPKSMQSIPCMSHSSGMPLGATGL

Broadly, the EC50 is the concentration needed to bring the measured effect to its halfway point. As to `Cc1cc2c(=O)[nH]c(Cn3cc(CNCc4nccs4)c(C(F)(F)F)n3)nc2s1` [Example 1, 6-Methyl-2-((4-((thiazol-2-ylmethylamino)methyl)-3-(trifluoromethyl)-1H-pyrazol-1-yl)methyl)thieno[2,3-d]pyrimidin-4(3H)-one], the “percentage increase in steady state current” value in assay [1] was found to be 235±44%. On AMPA (GluR1) receptor, the EC50 turned out to be 1000 nM.
